From patent US20150119394A1, “Insulin-Like Growth Factor-1 Receptor Inhibitors” (Merck Sharp & Dohme Corp., priority 2012, published 2015) come the findings set out here.

SMILES strings stand for the structures.

T1 sequence (P08069 999-1274 limits assumed): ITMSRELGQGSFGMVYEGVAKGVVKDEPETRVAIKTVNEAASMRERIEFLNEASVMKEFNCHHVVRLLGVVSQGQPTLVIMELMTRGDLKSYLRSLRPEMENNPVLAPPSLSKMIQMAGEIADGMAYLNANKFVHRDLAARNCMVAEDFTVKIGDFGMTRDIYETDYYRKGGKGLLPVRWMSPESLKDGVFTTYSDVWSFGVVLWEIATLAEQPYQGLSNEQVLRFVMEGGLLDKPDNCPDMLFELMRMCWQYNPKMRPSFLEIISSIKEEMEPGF

The assay has as its target T1, intracellular kinase domain of human IGF-1R (GST fusion protein) (Homo sapiens, UniProt P08069).
T1 construct: IGFRK and IRK enzyme used for the assay was intracellular kinase domain of human IGF-1R; GST; made in house
Kind of assay: In vitro IGF-1R kinase assay (HTRF). The settings on record: ATP 20 μM, IGFRK 0.25 nM. In kind it is biochemical. On the procedure:
The in vitro kinase assays using IGF-1R and IR kinase GST fusion proteins were conducted using a homogeneous time-resolved fluorescence (HTRF) format. Kinase reactions were carried out in a 384-well plate format in a final volume of 20 μL. The standard enzyme reaction buffer consisted of 50 mM Tris HCL (pH: 7.4), 1 mM EGTA, 10 mM MgCl2, 2 mM DTT, 0.01% Tween-20, IGF-1R/IR kinase enzyme, poly GT peptide substrate (Perkin Elmer [Ulight Glu-Tyr (4:1)]n) and ATP [concentration equivalent to Kmapp] […] Briefly, 2.5 μL enzyme and 2.5 μL inhibitor was preincubated for 10 minutes at 23° C. followed by the addition of 2.5 μL of poly GT substrate (final concentration of 50 nM). Reaction was initiated with the addition of 2.5 μL of ATP (final concentration of 20 μM for IGF-1R assay and 10 μM for IR assay). After 1 hour incubation at 23° C., the kinase reaction was stopped with the addition of 5 μL EDTA (final concentration of 10 mM in 20 μL). Europium cryptate—labeled antiphosphotyrosine antibody PY20 (5 μL) was added (final concentration of 2 nM) and the mixture was allowed to equilibrate for 1 hour at 23° C. followed by reading the plate in an Envision plate reader.
The intensity of light emission at 665 nm was directly proportional to the level of substrate phosphorylation. The IC50 values for inhibitors were determined by a four-parameter sigmoidal curve fit (Sigma plot or Graph pad).
IGFRK and IRK enzyme used for the assay was intracellular kinase domain of human IGF-1R and human IR cloned and expressed as GST fusion proteins using the baculovirus expression system and purified using glutathione—Sepharose column.
On the technique in general: TR-FRET usually uses a lanthanide donor and a delayed reading to cut background.
Turning to `NC(=O)c1[nH]c2ccc(Cl)cc2c1S(=O)(=O)N1CCO[C@H](COc2cccc(-c3ccc(F)nc3)c2)C1` [Compound 8, (S)-5-chloro-3-((2-((3-(6-fluoropyridin-3-yl)phenoxy)methyl)morpholino)sulfonyl)-1H-indole-2-carboxamide], the IC50 (as a rule, the concentration that inhibits the measured activity by half) came to 15.5 nM.

The compound `COc1ccc(-c2ccc(OC[C@@H]3CN(S(=O)(=O)c4c(C(N)=O)[nH]c5ccc(Cl)cc45)CCO3)cc2C)cn1` [Compound 69, (S)-5-chloro-3-((2-((4-(6-methoxypyridin-3-yl)-3-methylphenoxy)methyl)morpholino)sulfonyl)-1H-indole-2-carboxamide] returned an IC50 of over 100 nM.

As for `NC(=O)c1[nH]c2ccc(Cl)cc2c1S(=O)(=O)N1CCO[C@H](COc2ccccc2-c2ccc(F)nc2)C1` [Compound 59, (S)-5-chloro-3-((2-((2-(6-fluoropyridin-3-yl)phenoxy)methyl)morpholino)sulfonyl)-1H-indole-2-carboxamide], the IC50 is over 1000 nM.

`NC(=O)c1[nH]c2ccc(Cl)cc2c1S(=O)(=O)N1CCO[C@H](COc2ccc(F)c(-c3cccnc3)c2)C1` [Compound 26, (S)-5-chloro-3-((2-((4-fluoro-3-(pyridin-3-yl)phenoxy)methyl)morpholino)sulfonyl)-1H-indole-2-carboxamide] showed an IC50 of 11.2 nM.

`NC(=O)c1[nH]c2ccc(Cl)cc2c1S(=O)(=O)N1CCO[C@H](COc2cccc3cccnc23)C1` [Compound 90, (S)-5-chloro-3-((2-((quinolin-8-yloxy)methyl)morpholino)sulfonyl)-1H-indole-2-carboxamide] yielded an IC50 of over 100 nM.

Regarding `Cc1cccc(-c2cccc(OC[C@@H]3CN(S(=O)(=O)c4c(C(N)=O)[nH]c5ccc(Cl)cc45)CCO3)c2)c1` [Compound 14, (S)-5-chloro-3-((2-(((3′-methyl-[1,1′-biphenyl]-3-yl)oxy)methyl)morpholino)sulfonyl)-1H-indole-2-carboxamide], the IC50 is over 100 nM.

For `COc1ccccc1-c1ccc(OC[C@@H]2CN(S(=O)(=O)c3c(C(N)=O)[nH]c4ccc(Cl)cc34)CCO2)cc1` [Compound 43, (S)-5-chloro-3-((2-(((2′-methoxy-[1,1′-biphenyl]-4-yl)oxy)methyl)morpholino)sulfonyl)-1H-indole-2-carboxamide], the IC50 was over 100 nM.

In turn, `COc1ccccc1-c1cc(OC[C@@H]2CN(S(=O)(=O)c3c(C(N)=O)[nH]c4ccc(Cl)cc34)CCO2)ccc1C` [Compound 23, (S)-5-chloro-3-((2-(((2′-methoxy-6-methyl-[1,1′-biphenyl]-3-yl)oxy)methyl)morpholino)sulfonyl)-1H-indole-2-carboxamide] yielded an IC50 of 132 nM.

Compound `COc1ncccc1-c1ccc(OC[C@@H]2CN(S(=O)(=O)c3c(C(N)=O)[nH]c4ccc(Cl)cc34)CCO2)cc1` [Compound 44, (S)-5-chloro-3-((2-((4-(2-methoxypyridin-3-yl)phenoxy)methyl)morpholino)sulfonyl)-1H-indole-2-carboxamide] displayed an IC50 of 46.4 nM.

With `NC(=O)c1[nH]c2ccc(Cl)cc2c1S(=O)(=O)N1CCO[C@H](COc2ccc(-c3ccccc3OC(F)(F)F)cc2)C1` [Compound 40, (S)-5-chloro-3-((2-(((2′-(trifluoromethoxy)-[1,1′-biphenyl]-4-yl)oxy)methyl)morpholino)sulfonyl)-1H-indole-2-carboxamide], the IC50 stood at 361 nM.

On to `COc1ccc(-c2ccc(OC[C@@H]3CN(S(=O)(=O)c4c(C(N)=O)[nH]c5ccc(Cl)cc45)CCO3)cc2)cn1` [Compound 37, (S)-5-chloro-3-((2-((4-(6-methoxypyridin-3-yl)phenoxy)methyl)morpholino)sulfonyl)-1H-indole-2-carboxamide], for which the IC50 amounted to 166 nM.

Consider `NC(=O)c1[nH]c2ccc(Cl)cc2c1S(=O)(=O)N1CCO[C@H](COc2cccc(-c3ccnc(Cl)c3)c2)C1` [Compound 85, (S)-5-chloro-3-((2-((3-(2-chloropyridin-4-yl)phenoxy)methyl)morpholino)sulfonyl)-1H-indole-2-carboxamide], for which the IC50 turned out to be 9.7 nM.

For the compound `NC(=O)c1[nH]c2ccc(Cl)cc2c1S(=O)(=O)N1CCO[C@H](COc2ccccc2-c2ccccc2F)C1` [Compound 62, (S)-5-chloro-3-((2-(((2′-fluoro-[1,1′-biphenyl]-2-yl)oxy)methyl)morpholino)sulfonyl)-1H-indole-2-carboxamide], the IC50 was over 1000 nM.

In the case of `COc1ccccc1-c1ccccc1OC[C@@H]1CN(S(=O)(=O)c2c(C(N)=O)[nH]c3ccc(Cl)cc23)CCO1` [Compound 58, (S)-5-chloro-3-((2-(((2′-methoxy-[1,1′-biphenyl]-2-yl)oxy)methyl)morpholino)sulfonyl)-1H-indole-2-carboxamide], the IC50 was over 1000 nM.

`NC(=O)c1[nH]c2ccc(Cl)cc2c1S(=O)(=O)N1CCO[C@H](COc2cnc(-c3ccccc3)cn2)C1` [Compound 77, (S)-5-chloro-3-((2-(((5-phenylpyrazin-2-yl)oxy)methyl)morpholino)sulfonyl)-1H-indole-2-carboxamide] had an IC50 of 204 nM.

The compound `Cc1ccc(OC[C@@H]2CN(S(=O)(=O)c3c(C(N)=O)[nH]c4ccc(Cl)cc34)CCO2)cc1-c1ccccc1F` [Compound 21, (S)-5-chloro-3-((2-(((2′-fluoro-6-methyl-[1,1′-biphenyl]-3-yl)oxy)methyl)morpholino)sulfonyl)-1H-indole-2-carboxamide] registered an IC50 of 184 nM.

`NC(=O)c1[nH]c2ccc(Cl)cc2c1S(=O)(=O)N1CCO[C@H](COc2ccccc2-c2cccnc2)C1` [Compound 55, (S)-5-chloro-3-((2-((2-(pyridin-3-yl)phenoxy)methyl)morpholino)sulfonyl)-1H-indole-2-carboxamide] yielded an IC50 of over 1000 nM.

For the compound `NC(=O)c1[nH]c2ccc(Cl)cc2c1S(=O)(=O)N1CCO[C@H](COc2cncc(-c3cc(C(F)(F)F)ccc3F)c2)C1` [Compound 75], the IC50 is over 1000 nM.

On to `CN(C)c1ccc(-c2ccc(OC[C@@H]3CN(S(=O)(=O)c4c(C(N)=O)[nH]c5ccc(Cl)cc45)CCO3)cc2)cn1` [Compound 34, (S)-5-chloro-3-((2-((4-(6-(dimethylamino)pyridin-3-yl)phenoxy)methyl)morpholino)sulfonyl)-1H-indole-2-carboxamide], for which the IC50 is over 1000 nM.

With `NC(=O)c1[nH]c2ccc(Cl)cc2c1S(=O)(=O)N1CCO[C@H](COc2ccc(-c3ccccc3C(F)(F)F)cc2)C1` [Compound 38, (S)-5-chloro-3-((2-(((2′-(trifluoromethyl)-[1,1′-biphenyl]-4-yl)oxy)methyl)morpholino)sulfonyl)-1H-indole-2-carboxamide], the IC50 stood at 113 nM.

On to `COc1ccc(-c2ccc(OC[C@@H]3CN(S(=O)(=O)c4c(C(N)=O)[nH]c5ccc(Cl)cc45)CCO3)cc2)cc1` [Compound 39, (S)-5-chloro-3-((2-(((4′-methoxy-[1,1′-biphenyl]-4-yl)oxy)methyl)morpholino)sulfonyl)-1H-indole-2-carboxamide], for which the IC50 worked out at 206 nM.

The compound `Cc1cc(OC[C@@H]2CN(S(=O)(=O)c3c(C(N)=O)[nH]c4ccc(Cl)cc34)CCO2)ccc1-c1cncnc1` [Compound 71, (S)-5-chloro-3-((2-((3-methyl-4-(pyrimidin-5-yl)phenoxy)methyl)morpholino)sulfonyl)-1H-indole-2-carboxamide] showed an IC50 of 5.3 nM.

As for `NC(=O)c1[nH]c2ccc(Cl)cc2c1S(=O)(=O)N1CCO[C@H](COc2ccc(F)c(-c3ccncc3)c2)C1` [Compound 28, (S)-5-chloro-3-((2-((4-fluoro-3-(pyridin-4-yl)phenoxy)methyl)morpholino)sulfonyl)-1H-indole-2-carboxamide], the IC50 worked out at 6.9 nM.

`Cc1cc(-c2cc(OC[C@@H]3CN(S(=O)(=O)c4c(C(N)=O)[nH]c5ccc(Cl)cc45)CCO3)ccc2F)ccn1` [Compound 30, (S)-5-chloro-3-((2-((4-fluoro-3-(2-methylpyridin-4-yl)phenoxy)methyl)morpholino)sulfonyl)-1H-indole-2-carboxamide] registered an IC50 of under 100 nM.

Compound `COc1ccc(-c2ccccc2OC[C@@H]2CN(S(=O)(=O)c3c(C(N)=O)[nH]c4ccc(Cl)cc34)CCO2)cn1` [Compound 61, (S)-5-chloro-3-((2-((2-(6-methoxypyridin-3-yl)phenoxy)methyl)morpholino)sulfonyl)-1H-indole-2-carboxamide] gave an IC50 of over 1000 nM.

Compound `Cc1ccccc1-c1ccc(OC[C@@H]2CN(S(=O)(=O)c3c(C(N)=O)[nH]c4ccc(Cl)cc34)CCO2)cc1` [Compound 41, (S)-5-chloro-3-((2-(((2′-methyl-[1,1′-biphenyl]-4-yl)oxy)methyl)morpholino)sulfonyl)-1H-indole-2-carboxamide] gave an IC50 of 184 nM.

On to `NC(=O)c1[nH]c2ccc(Cl)cc2c1S(=O)(=O)N1CCO[C@H](COc2cccc(-c3ccnc(F)c3)c2)C1` [Compound 13, (S)-5-chloro-3-((2-((3-(2-fluoropyridin-4-yl)phenoxy)methyl)morpholino)sulfonyl)-1H-indole-2-carboxamide], for which the IC50 was found to be 3.4 nM.
